According to the supplement of paper PMC11451515:

What was measured:
Conditions in all cases: 48 h
SEM cells [1] = assay: AUC of viability dose-response curve (% viability x log10 dose units); higher = less sensitive
Procedure, shortened: (§1)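 Medium-adapted leukemia cells in 1536-well plates, at 500 or 1000 cells/well, were incubated for 48 h at 37°C with library compounds in DMSO at 11 threefold doses from 47 μM to 0.79 nM. CellTiter-Glo One luminescence normalised per plate to DMSO and cell-free wells was fitted with a four-parameter log-logistic model over log10 doses. Area under the curve was integrated from this fit by trapezoidal rule, with curves beyond full viability scaled and failed quality-control curves removed.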

P12-Ichikawa = assay: as above
Procedure, shortened: as §1

NOMO1 [2] = assay: as above
Procedure, shortened: as §1

SEM cells [3] = assay: cell viability relative to DMSO control; higher = less cytotoxic
Procedure, shortened: (§2)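 Cells were incubated for 48 h at 37°C before CellTiter-Glo One luminescence was read. The cells were NOMO1 or SEM (500 cells/well) or P12-Ichikawa (1000 cells/well) leukemia cells, adapted for at least four passages in each medium and seeded in 1536-well plates (5 μl). Dosing used library compounds in DMSO applied by pin over 11 threefold points, 47 μM to 0.79 nM. Viability is the per-plate percentage of DMSO wells, with cell-free wells as background.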

NOMO1 [4] = assay: as above
Procedure, shortened: as §2

C[S+](=O)([O-])N1CCN(Cc2cc3nc(-c4cccc5[nH]ncc45)nc(N4CCOCC4)c3s2)CC1
AUC of viability dose-response curve
Conditions	NOMO1 [2]	P12-Ichikawa	SEM cells [1]
HPLM + 10% dialyzed FBS	381	428	356
RPMI 5 mM glucose + 10% FBS	421	420	348
RPMI 5 mM glucose + 10% dialyzed FBS	384	414	348

cell viability [%]
Conditions	HPLM + 10% dialyzed FBS	RPMI 5 mM glucose + 10% FBS	RPMI 5 mM glucose + 10% dialyzed FBS
NOMO1 [4], 0.000781 µM	–	113	–
NOMO1 [4], 0.00234 µM	–	133	–
NOMO1 [4], 0.00702 µM	–	116	–
NOMO1 [4], 0.0211 µM	–	132	–
NOMO1 [4], 0.0632 µM	–	128	–
NOMO1 [4], 0.19 µM	–	133	–
NOMO1 [4], 0.569 µM	–	117	–
NOMO1 [4], 1.71 µM	–	107	–
NOMO1 [4], 5.12 µM	–	80.3	–
NOMO1 [4], 15.4 µM	–	80.6	–
NOMO1 [4], 46.1 µM	–	65.5	–
SEM cells [3], 0.000781 µM	97.5	106	115
SEM cells [3], 0.00234 µM	121	121	122
SEM cells [3], 0.00702 µM	116	129	129
SEM cells [3], 0.0211 µM	111	105	127
SEM cells [3], 0.0632 µM	103	112	110
SEM cells [3], 0.19 µM	92.4	108	106
SEM cells [3], 0.569 µM	82	89	78.6
SEM cells [3], 1.71 µM	74.9	67.4	78
SEM cells [3], 5.12 µM	56.9	46.6	57
SEM cells [3], 15.4 µM	31.7	23.2	42.6
SEM cells [3], 46.1 µM	12.9	8.22	16

CC(c1cc2ccccc2s1)N(O)C(N)=O (centres undefined)
AUC of viability dose-response curve
Conditions	NOMO1 [2]	P12-Ichikawa	SEM cells [1]
HPLM + 10% dialyzed FBS	474	456	463
RPMI 5 mM glucose + 10% FBS	459	460	459
RPMI 5 mM glucose + 10% dialyzed FBS	425	458	448

SEM cells [3], HPLM + 10% dialyzed FBS
Conditions	cell viability [%]
0.000781 µM	112
0.00234 µM	130
0.00702 µM	123
0.0211 µM	118
0.0632 µM	129
0.19 µM	136
0.569 µM	132
1.71 µM	120
5.12 µM	119
15.4 µM	116
46.1 µM	73.1

COc1ccc([S+](=O)([O-])Nc2cc(-c3c(O)ccc4ccccc34)c(O)c3ccccc23)cc1
AUC of viability dose-response curve
Conditions	NOMO1 [2]	P12-Ichikawa	SEM cells [1]
HPLM + 10% dialyzed FBS	435	429	408
RPMI 5 mM glucose + 10% FBS	453	439	383
RPMI 5 mM glucose + 10% dialyzed FBS	462	432	389

cell viability [%], SEM cells [3]
Conditions	HPLM + 10% dialyzed FBS	RPMI 5 mM glucose + 10% FBS
0.000781 µM	96.8	114
0.00234 µM	111	115
0.00702 µM	134	124
0.0211 µM	115	131
0.0632 µM	101	119
0.19 µM	116	127
0.569 µM	101	115
1.71 µM	97	88.7
5.12 µM	86.4	78.6
15.4 µM	43.4	18.4
46.1 µM	6.74	5.19

OC1=CC(=C(C=C1)\C2=C(O)\C(=O)C3=C(O2)C=C(O)C=C3O)O
AUC of viability dose-response curve
Conditions	NOMO1 [2]	P12-Ichikawa	SEM cells [1]
HPLM + 10% dialyzed FBS	450	442	461
RPMI 5 mM glucose + 10% FBS	433	444	459
RPMI 5 mM glucose + 10% dialyzed FBS	467	443	465

NOMO1 [4], HPLM + 10% dialyzed FBS
Conditions	cell viability [%]
0.000781 µM	121
0.00234 µM	118
0.00702 µM	138
0.0211 µM	136
0.0632 µM	120
0.19 µM	137
0.569 µM	132
1.71 µM	119
5.12 µM	112
15.4 µM	106
46.1 µM	71.5
